This is an account of results in publication PMC5218480 (PLoS ONE, 2017).

This test deals with MV-4-11 cells. As to the kind of experiment: Gene expression microarray analysis (Affymetrix PrimeView) and GSEA. Type of test: cell-based, human. As to conditions: ProbeSet 11725885_a_at; LIST B. Also noted: RFU PODN (11730768_x_at) / Fold change /veh PODN (11730768_x_at) / RFU LINC00158 (11744669_a_at) / Fold change /veh LINC00158 (11744669_a_at) / RFU DUSP10 (11751237_a_at) / Fold change /veh DUSP10 (11751237_a_at) / RFU ID3 (11757404_x_at) / Fold change /veh ID3 (11757404_x_at) / RFU PLEKHG5 (11737974_s_at) / Fold change /veh PLEKHG5 (11737974_s_at) / RFU LRRC4B (11730491_at) / Fold change /veh LRRC4B (11730491_at) / RFU GIMAP4 (11747438_a_at) / Fold change /veh GIMAP4 (11747438_a_at) / RFU KRT8 (11758183_x_at) / Fold change /veh KRT8 (11758183_x_at) / RFU CNN1 (11734310_a_at) / Fold change /veh CNN1 (11734310_a_at) / RFU VPS37D (11726825_at) / Fold change /veh VPS37D (11726825_at) / RFU C10orf10 (11716522_x_at) / Fold change /veh C10orf10 (11716522_x_at) / RFU KIR2DL2 /// KIR2DL4 /// KIR2DL5A /// KIR2DL5B /// KIR2DS1 /// KIR2DS2 /// KIR2DS3 /// KIR2DS4 /// KIR3DL3 /// KIR3DL3 /// KIR3DS1 (11738374_at) / Fold change /veh KIR2DL2 /// KIR2DL4 /// KIR2DL5A /// KIR2DL5B /// KIR2DS1 /// KIR2DS2 /// KIR2DS3 /// KIR2DS4 /// KIR3DL3 /// KIR3DL3 /// KIR3DS1 (11738374_at) / RFU C1QL1 (11718748_at) / Fold change /veh C1QL1 (11718748_at) / RFU TMPRSS4 (11747572_a_at) / Fold change /veh TMPRSS4 (11747572_a_at) / RFU HAMP (11756126_x_at) / Fold change /veh HAMP (11756126_x_at) / RFU RNFT2 (11725882_a_at) / Fold change /veh RNFT2 (11725882_a_at) / RFU NR4A2 (11747474_a_at) / Fold change /veh NR4A2 (11747474_a_at) / RFU ABCC12 (11746883_a_at) / Fold change /veh ABCC12 (11746883_a_at) / RFU TMEM136 (11760407_x_at) / Fold change /veh TMEM136 (11760407_x_at) / RFU CLDN22 /// WWC2 (11732394_at) / Fold change /veh CLDN22 /// WWC2 (11732394_at) / RFU HLA-DPB1 (11760878_x_at) / Fold change /veh HLA-DPB1 (11760878_x_at) / RFU SPINT1 (11716480_a_at) / Fold change /veh SPINT1 (11716480_a_at) / RFU GAP43 (11754022_s_at) / Fold change /veh GAP43 (11754022_s_at) / RFU A4GNT (11735810_at) / Fold change /veh A4GNT (11735810_at) / RFU PRB3 (11715151_x_at) / Fold change /veh PRB3 (11715151_x_at) / RFU TUBB4B (11761932_at) / Fold change /veh TUBB4B (11761932_at) / RFU CAPN14 (11732068_a_at) / Fold change /veh CAPN14 (11732068_a_at) / RFU TMCC2 (11721928_a_at) / Fold change /veh TMCC2 (11721928_a_at) / RFU IRGQ (11745062_a_at) / Fold change /veh IRGQ (11745062_a_at) / RFU FAM174B (11720279_a_at) / Fold change /veh FAM174B (11720279_a_at) / RFU TMPRSS4 (11748680_a_at) / Fold change /veh TMPRSS4 (11748680_a_at) / RFU FAM212B (11763350_a_at) / Fold change /veh FAM212B (11763350_a_at) / RFU PLEKHG5 (11743358_a_at) / Fold change /veh PLEKHG5 (11743358_a_at) / RFU ZSCAN30 (11745921_a_at) / Fold change /veh ZSCAN30 (11745921_a_at) / RFU CMKLR1 (11741424_a_at) / Fold change /veh CMKLR1 (11741424_a_at) / RFU LOC101060620 /// MAPK8IP1 (11723275_at) / Fold change /veh LOC101060620 /// MAPK8IP1 (11723275_at) / RFU SPTSSB (11747773_x_at) / Fold change /veh SPTSSB (11747773_x_at) / RFU PRSS12 (11739890_at) / Fold change /veh PRSS12 (11739890_at) / RFU BIN1 (11741810_x_at) / Fold change /veh BIN1 (11741810_x_at) / RFU WNT11 (11732464_a_at) / Fold change /veh WNT11 (11732464_a_at) / RFU C10orf10 (11716521_a_at) / Fold change /veh C10orf10 (11716521_a_at) / RFU C5orf56 (11738089_at) / Fold change /veh C5orf56 (11738089_at) / RFU CYB561 (11721691_x_at) / Fold change /veh CYB561 (11721691_x_at) / RFU ANKRD19P (11752326_a_at) / Fold change /veh ANKRD19P (11752326_a_at) / RFU OR2T12 /// OR2T33 /// OR2T8 (11738714_s_at) / Fold change /veh OR2T12 /// OR2T33 /// OR2T8 (11738714_s_at) / RFU VCAN (11748164_a_at) / Fold change /veh VCAN (11748164_a_at) / RFU JSRP1 (11732532_at) / Fold change /veh JSRP1 (11732532_at) / RFU KRTAP10-11 (11738290_x_at) / Fold change /veh KRTAP10-11 (11738290_x_at) / RFU MYO3A (11730013_a_at) / Fold change /veh MYO3A (11730013_a_at) / RFU EBF3 (11725865_a_at) / Fold change /veh EBF3 (11725865_a_at) / RFU CAMK2N1 (11719241_x_at) / Fold change /veh CAMK2N1 (11719241_x_at) / RFU C5orf56 (11738088_a_at) / Fold change /veh C5orf56 (11738088_a_at) / RFU OLFML3 (11715873_a_at) / Fold change /veh OLFML3 (11715873_a_at) / RFU LOC100653217 /// NTM (11731650_a_at) / Fold change /veh LOC100653217 /// NTM (11731650_a_at) / RFU MAPK11 (11762145_a_at) / Fold change /veh MAPK11 (11762145_a_at) / RFU FIZ1 (11724087_x_at) / Fold change /veh FIZ1 (11724087_x_at) / RFU OASL (11726364_x_at) / Fold change /veh OASL (11726364_x_at) / RFU SOX15 (11748057_x_at) / Fold change /veh SOX15 (11748057_x_at) / RFU CD79A (11719716_a_at) / Fold change /veh CD79A (11719716_a_at) / RFU HIST1H1D (11736915_at) / Fold change /veh HIST1H1D (11736915_at) / RFU CASKIN2 (11723855_a_at) / Fold change /veh CASKIN2 (11723855_a_at) / RFU LOC730098 (11760151_x_at) / Fold change /veh LOC730098 (11760151_x_at) / RFU OR4N2 (11742367_at) / Fold change /veh OR4N2 (11742367_at) / RFU PRRT2 (11749266_a_at) / Fold change /veh PRRT2 (11749266_a_at) / RFU SNX32 (11753110_a_at) / Fold change /veh SNX32 (11753110_a_at) / RFU CDHR5 (11726645_a_at) / Fold change /veh CDHR5 (11726645_a_at) / RFU RCAN1 (11760418_a_at) / Fold change /veh RCAN1 (11760418_a_at) / RFU FAM167A (11723789_a_at) / Fold change /veh FAM167A (11723789_a_at) / RFU FAM26E (11764081_at) / Fold change /veh FAM26E (11764081_at) / RFU ISYNA1 (11749810_s_at) / Fold change /veh ISYNA1 (11749810_s_at) / RFU ACY1 (11761880_at) / Fold change /veh ACY1 (11761880_at) / RFU 11764098_at / Fold change /veh 11764098_at / RFU SAMD14 (11745864_x_at) / Fold change /veh SAMD14 (11745864_x_at) / RFU NPB (11741838_a_at) / Fold change /veh NPB (11741838_a_at) / RFU TMPRSS6 (11731388_a_at) / Fold change /veh TMPRSS6 (11731388_a_at) / RFU KRTAP10-2 (11738614_at) / Fold change /veh KRTAP10-2 (11738614_at) / RFU ARHGAP8 /// PRR5-ARHGAP8 (11727945_x_at) / Fold change /veh ARHGAP8 /// PRR5-ARHGAP8 (11727945_x_at) / RFU KRTAP5-7 /// NADSYN1 (11734609_at) / Fold change /veh KRTAP5-7 /// NADSYN1 (11734609_at) / RFU RASL12 (11751679_a_at) / Fold change /veh RASL12 (11751679_a_at) / RFU CDKN2B (11736163_a_at) / Fold change /veh CDKN2B (11736163_a_at) / RFU PRF1 (11729649_at) / Fold change /veh PRF1 (11729649_at) / RFU, ZNF638 /// ZNF638-IT1 / Fold change vs veh, ZNF638 /// ZNF638-IT1 / RFU, PANK3 / Fold change vs veh, PANK3 / RFU, SH3YL1 / Fold change vs veh, SH3YL1 / RFU, ZEB2 / Fold change vs veh, ZEB2 / RFU, NRIP1 / Fold change vs veh, NRIP1 / RFU, PTTG1IP / Fold change vs veh, PTTG1IP / RFU, CAPN2 / Fold change vs veh, CAPN2 / RFU, MED14 / Fold change vs veh, MED14 / RFU, SNORA58 / Fold change vs veh, SNORA58 / RFU, C1orf63 / Fold change vs veh, C1orf63 / RFU, LRRFIP1 / Fold change vs veh, LRRFIP1 / RFU, NDUFAF7 / Fold change vs veh, NDUFAF7 / RFU, SLC12A2 / Fold change vs veh, SLC12A2 / RFU, IBTK / Fold change vs veh, IBTK / RFU, ESF1 / Fold change vs veh, ESF1 / Fold change vs veh, TMEM50B / RFU, TAOK1 / Fold change vs veh, TAOK1 / RFU, ACBD3 / Fold change vs veh, ACBD3 / RFU, TMA16 / Fold change vs veh, TMA16 / RFU, RWDD3 / Fold change vs veh, RWDD3 / RFU, BCAT1 / Fold change vs veh, BCAT1 / RFU, EDEM3 / Fold change vs veh, EDEM3 / RFU, TMEM33 / Fold change vs veh, TMEM33 / RFU, WDR75 / Fold change vs veh, WDR75 / RFU, AHCTF1 / Fold change vs veh, AHCTF1 / RFU, TFRC / Fold change vs veh, TFRC / RFU, ZDHHC17 / Fold change vs veh, ZDHHC17 / RFU, NOM1 / Fold change vs veh, NOM1 / RFU, ARL8B / Fold change vs veh, ARL8B / RFU, ZBTB11 / Fold change vs veh, ZBTB11 / RFU, TAMM41 / Fold change vs veh, TAMM41 / RFU, KIAA1704 /// LOC100996395 / Fold change vs veh, KIAA1704 /// LOC100996395 / RFU, ING1 / Fold change vs veh, ING1 / RFU, TRMT61B / Fold change vs veh, TRMT61B / RFU, FUBP3 / Fold change vs veh, FUBP3 / RFU, TP53 / Fold change vs veh, TP53 / RFU, TNKS2 / Fold change vs veh, TNKS2 / RFU, ZFP14 / Fold change vs veh, ZFP14 / RFU, ACTR2 / Fold change vs veh, ACTR2 / RFU, PPP3R1 / Fold change vs veh, PPP3R1 / RFU, PIK3R1 / Fold change vs veh, PIK3R1 / RFU, HNRNPA1 / Fold change vs veh, HNRNPA1 / RFU, RNF170 / Fold change vs veh, RNF170 / RFU, ZNF28 / Fold change vs veh, ZNF28 / RFU, RNGTT / Fold change vs veh, RNGTT / RFU, OGT / Fold change vs veh, OGT / RFU, BRD1 / Fold change vs veh, BRD1 / RFU, MARS / Fold change vs veh, MARS / RFU, ZNF655 / Fold change vs veh, ZNF655 / RFU, FAHD1 / Fold change vs veh, FAHD1 / RFU, BDP1 / Fold change vs veh, BDP1 / RFU, LRRCC1 / Fold change vs veh, LRRCC1 / RFU, ARID1A / Fold change vs veh, ARID1A / RFU, ZNF146 / Fold change vs veh, ZNF146 / RFU, ZNF330 / Fold change vs veh, ZNF330 / RFU, GPN3 / Fold change vs veh, GPN3 / RFU, C9orf123 / Fold change vs veh, C9orf123 / RFU, N4BP2L2 / Fold change vs veh, N4BP2L2 / RFU, ARFIP1 / Fold change vs veh, ARFIP1 / RFU, FAM179B / Fold change vs veh, FAM179B / RFU, BCL10 / Fold change vs veh, BCL10 / RFU, UHRF1BP1L / Fold change vs veh, UHRF1BP1L / RFU, BET1 / Fold change vs veh, BET1 / RFU, CNOT2 / Fold change vs veh, CNOT2 / RFU, ZNF268 / Fold change vs veh, ZNF268 / Fold change vs veh, ZNF507 / RFU, DGCR2 / Fold change vs veh, DGCR2 / RFU, WDSUB1 / Fold change vs veh, WDSUB1 / Fold change vs veh, HSP90B1 /// MIR3652 / RFU, ADSS / Fold change vs veh, ADSS / RFU, GK / Fold change vs veh, GK / RFU, ZNF148 / Fold change vs veh, ZNF148 / RFU, TAF9 / Fold change vs veh, TAF9 / RFU, SLC1A5 / Fold change vs veh, SLC1A5 / RFU, SLMO2 / Fold change vs veh, SLMO2 / RFU, ABCC4 / Fold change vs veh, ABCC4 / RFU, LOC101060439 /// RAP1B / Fold change vs veh, LOC101060439 /// RAP1B / RFU, RFX7 / Fold change vs veh, RFX7 / RFU, GTPBP10 / Fold change vs veh, GTPBP10 / RFU, CNEP1R1 / Fold change vs veh, CNEP1R1 / RFU, BIVM-ERCC5 /// ERCC5 / Fold change vs veh, BIVM-ERCC5 /// ERCC5 / RFU, ILF3 / Fold change vs veh, ILF3 / RFU 11762660_at / Fold change /veh 11762660_at / RFU VCAN (11757783_s_at) / Fold change /veh VCAN (11757783_s_at) / RFU DDX43 (11728927_at) / Fold change /veh DDX43 (11728927_at) / RFU KRT8 (11758188_x_at) / Fold change /veh KRT8 (11758188_x_at) / RFU NKD1 (11759106_at) / Fold change /veh NKD1 (11759106_at) / RFU SRD5A1 (11742802_a_at) / Fold change /veh SRD5A1 (11742802_a_at) / RFU TPSAB1 /// TPSB2 (11721975_s_at) / Fold change /veh TPSAB1 /// TPSB2 (11721975_s_at) / RFU GSTM3 (11746129_a_at) / Fold change /veh GSTM3 (11746129_a_at) / RFU IL23R (11737362_x_at) / Fold change /veh IL23R (11737362_x_at) / RFU TMEM51 (11727254_a_at) / Fold change /veh TMEM51 (11727254_a_at) / RFU PIWIL2 (11732686_x_at) / Fold change /veh PIWIL2 (11732686_x_at) / RFU ORM1 (11744905_x_at) / Fold change /veh ORM1 (11744905_x_at) / RFU CCDC152 (11743942_at) / Fold change /veh CCDC152 (11743942_at) / RFU ECM1 (11717891_a_at) / Fold change /veh ECM1 (11717891_a_at) / RFU IL23R (11748794_a_at) / Fold change /veh IL23R (11748794_a_at) / RFU TNFAIP8L3 (11732012_x_at) / Fold change /veh TNFAIP8L3 (11732012_x_at) / RFU MBOAT4 (11741988_at) / Fold change /veh MBOAT4 (11741988_at) / RFU 11764193_at / Fold change /veh 11764193_at / RFU TMEM53 (11763286_at) / Fold change /veh TMEM53 (11763286_at) / RFU MAGEB2 (11727129_at) / Fold change /veh MAGEB2 (11727129_at) / RFU TMEM200A (11744735_a_at) / Fold change /veh TMEM200A (11744735_a_at) / RFU CCDC152 (11751479_a_at) / Fold change /veh CCDC152 (11751479_a_at) / RFU FAM211A (11726209_a_at) / Fold change /veh FAM211A (11726209_a_at) / RFU RGS16 (11746705_a_at) / Fold change /veh RGS16 (11746705_a_at) / RFU VCAN (11755009_s_at) / Fold change /veh VCAN (11755009_s_at) / RFU RHOB (11743442_s_at) / Fold change /veh RHOB (11743442_s_at) / RFU RGS16 (11720943_a_at) / Fold change /veh RGS16 (11720943_a_at) / RFU RGS16 (11720944_at) / Fold change /veh RGS16 (11720944_at) / RFU, VPS4B / Fold change vs veh, VPS4B / RFU, CREB1 / Fold change vs veh, CREB1 / RFU, DNAJC13 / Fold change vs veh, DNAJC13 / RFU, GNAQ / Fold change vs veh, GNAQ / RFU, CDK5R1 / Fold change vs veh, CDK5R1 / RFU, ZRANB3 / Fold change vs veh, ZRANB3 / RFU, CUL4A / Fold change vs veh, CUL4A / RFU, CCNY / Fold change vs veh, CCNY / RFU, UFL1 / Fold change vs veh, UFL1 / RFU, COG3 / Fold change vs veh, COG3 / RFU, DIAPH2 / Fold change vs veh, DIAPH2 / RFU, SKA2 / Fold change vs veh, SKA2 / RFU, AFF3 / Fold change vs veh, AFF3 / RFU, LMF1 / Fold change vs veh, LMF1 / RFU, IPO11 / Fold change vs veh, IPO11 / RFU, DFFB / Fold change vs veh, DFFB / RFU, FOXP1 / Fold change vs veh, FOXP1 / RFU, CARD8 / Fold change vs veh, CARD8 / RFU, STRN3 / Fold change vs veh, STRN3 / RFU, ADK / Fold change vs veh, ADK / RFU, RASSF2 / Fold change vs veh, RASSF2 / RFU, WIPF1 / Fold change vs veh, WIPF1 / RFU, LARP1B / Fold change vs veh, LARP1B / RFU, RASA1 / Fold change vs veh, RASA1 / RFU, RB1 / Fold change vs veh, RB1 / RFU, PPFIA1 / Fold change vs veh, PPFIA1 / RFU, MAT2A / Fold change vs veh, MAT2A / RFU, CCT5 / Fold change vs veh, CCT5 / RFU, WDR92 / Fold change vs veh, WDR92 / RFU, CUX1 / Fold change vs veh, CUX1 / RFU, TTC7A / Fold change vs veh, TTC7A / RFU, TMEM135 / Fold change vs veh, TMEM135 / RFU, DEPTOR / Fold change vs veh, DEPTOR / RFU, CPM / Fold change vs veh, CPM / RFU, DNAJB6 / Fold change vs veh, DNAJB6 / RFU, CACNA2D3 / Fold change vs veh, CACNA2D3 / RFU, DTX4 / Fold change vs veh, DTX4 / RFU, TFCP2 / Fold change vs veh, TFCP2 / RFU, GMCL1 /// GMCL1P1 / Fold change vs veh, GMCL1 /// GMCL1P1 / RFU, AEBP2 / Fold change vs veh, AEBP2 / RFU, SNHG1 /// SNORD22 /// SNORD25 /// SNORD26 /// SNORD27 /// SNORD28 /// SNORD29 /// SNORD31 / Fold change vs veh, SNHG1 /// SNORD22 /// SNORD25 /// SNORD26 /// SNORD27 /// SNORD28 /// SNORD29 /// SNORD31 / Fold change (Aza/veh), C12orf56 (ProbeSet 11735607_a_at) / Fold change (ACY-1035/veh), C12orf56 (ProbeSet 11735607_a_at) / Fold change (Aza/veh), FGFR1OP (ProbeSet 11751329_s_at) / Fold change (ACY-1035/veh), FGFR1OP (ProbeSet 11751329_s_at) / Fold change (Aza/veh), VPS36 (ProbeSet 11739960_a_at) / Fold change (ACY-1035/veh), VPS36 (ProbeSet 11739960_a_at) / RFU SYPL1 (11715823_x_at) / Fold change /veh SYPL1 (11715823_x_at) / RFU IGFBP7 (11715501_s_at) / Fold change /veh IGFBP7 (11715501_s_at) / RFU REEP3 (11722064_at) / Fold change /veh REEP3 (11722064_at) / RFU IGLL1 (11728026_x_at) / Fold change /veh IGLL1 (11728026_x_at): dose or concentration left out as unconfirmed.

SMILES strings stand for the structures.

`Nc1ncn([C@@H]2O[C@H](CO)[C@@H](O)[C@H]2O)c(=O)n1` [azacitidine]: the “Fold change vs veh, CNEP1R1” value came out at 0.86.
